Reference: ChEMBL document CHEMBL3885881, “DrugMatrix”

Species: Rattus norvegicus
Test: DrugMatrix - Regimen: Daily Repeat
Assay type: toxicity, organism-based, Sprague-Dawley
Parameters: regimen Daily Repeat, gender Male, age 6-8 weeks
Conditions: in vivo, po, route oral GAVAGE, vehicle .5 % CMC; for BASOPHIL / EOSINOPHIL / ERYTHROCYTE COUNT / HEMATOCRIT / HEMOGLOBIN / LEUKOCYTE COUNT / LYMPHOCYTE / MEAN CORPUSCULAR HEMOGLOBIN / MEAN CORPUSCULAR HEMOGLOBIN CONCENTRATION / MEAN CORPUSCULAR VOLUME / MONOCYTE / NEUTROPHIL / PLATELET COUNT: tissue Blood; for ALANINE AMINOTRANSFERASE / ALBUMIN / ALKALINE PHOSPHATASE / ASPARTATE AMINOTRANSFERASE / BLOOD UREA NITROGEN / CHLORIDE / CHOLESTEROL / CREATINE PHOSPHOKINASE / CREATININE / GLUCOSE / PHOSPHORUS / POTASSIUM / SODIUM / TOTAL BILIRUBIN / TOTAL PROTEIN: tissue Plasma
[1] = 0 mg/kg, 72 h, dose level Control, time 3 day
[2] = 0 mg/kg, 120 h, dose level Control, time 5 day
[3] = 5 mg/kg, 72 h, dose level Low, time 3 day
[4] = 5 mg/kg, 120 h, dose level Low, time 5 day

**Q.** Which results are given for `CN1C(=O)CN=C(c2ccccc2)c2cc([N+](=O)[O-])ccc21` [NIMETAZEPAM]?
**A.** BASOPHIL [1]: 1.52%; EOSINOPHIL [1]: 0.98%; ERYTHROCYTE COUNT [1]: 6.96 x10E6/uL; HEMATOCRIT [1]: 44.65%; HEMOGLOBIN [1]: 13.62 G/DL; LEUKOCYTE COUNT [1]: 9.83 x10E3/uL; LYMPHOCYTE [1]: 76.48%; MEAN CORPUSCULAR HEMOGLOBIN [1]: 19.57 pg; MEAN CORPUSCULAR HEMOGLOBIN CONCENTRATION [1]: 30.47 G/DL; MEAN CORPUSCULAR VOLUME [1]: 64.22 fL; MONOCYTE [1]: 2.13%; NEUTROPHIL [1]: 18.6%; PLATELET COUNT [1]: 1217.17 x10E3/uL; ALANINE AMINOTRANSFERASE [1]: 41 u/L; ALBUMIN [1]: 3.77 G/DL; ALKALINE PHOSPHATASE [1]: 411.83 u/L; ASPARTATE AMINOTRANSFERASE [1]: 62.83 u/L; BLOOD UREA NITROGEN [1]: 15.17 mg/dL; CHLORIDE [1]: 104.33 MEQ/L; CHOLESTEROL [1]: 71.17 mg/dL; CREATINE PHOSPHOKINASE [1]: 123.5 u/L; CREATININE [1]: 0.55 mg/dL; GLUCOSE [1]: 182.67 mg/dL; PHOSPHORUS [1]: 11.23 mg/dL; POTASSIUM [1]: 7.03 MEQ/L; SODIUM [1]: 148 MEQ/L; TOTAL BILIRUBIN [1]: 0.57 mg/dL; TOTAL PROTEIN [1]: 6.85 G/DL; BASOPHIL [2]: 1.35%; EOSINOPHIL [2]: 0.43%; ERYTHROCYTE COUNT [2]: 6.96 x10E6/uL; HEMATOCRIT [2]: 44.35%; HEMOGLOBIN [2]: 13.98 G/DL; LEUKOCYTE COUNT [2]: 9.45 x10E3/uL; LYMPHOCYTE [2]: 80.83%; MEAN CORPUSCULAR HEMOGLOBIN [2]: 20.1 pg; MEAN CORPUSCULAR HEMOGLOBIN CONCENTRATION [2]: 31.52 G/DL; MEAN CORPUSCULAR VOLUME [2]: 63.72 fL; MONOCYTE [2]: 2.37%; NEUTROPHIL [2]: 14.05%; PLATELET COUNT [2]: 1298 x10E3/uL; ALANINE AMINOTRANSFERASE [2]: 42.17 u/L; ALBUMIN [2]: 3.77 G/DL; ALKALINE PHOSPHATASE [2]: 419 u/L; ASPARTATE AMINOTRANSFERASE [2]: 66.67 u/L; BLOOD UREA NITROGEN [2]: 16.67 mg/dL; CHLORIDE [2]: 103.17 MEQ/L; CHOLESTEROL [2]: 66.33 mg/dL; CREATINE PHOSPHOKINASE [2]: 148.33 u/L; CREATININE [2]: 0.58 mg/dL; GLUCOSE [2]: 196.83 mg/dL; PHOSPHORUS [2]: 11.8 mg/dL; POTASSIUM [2]: 6.47 MEQ/L; SODIUM [2]: 148.33 MEQ/L; TOTAL BILIRUBIN [2]: 0.53 mg/dL; TOTAL PROTEIN [2]: 6.77 G/DL; BASOPHIL [3]: 2.83%; EOSINOPHIL [3]: 0.3%; ERYTHROCYTE COUNT [3]: 7.13 x10E6/uL; HEMATOCRIT [3]: 44.5%; HEMOGLOBIN [3]: 13.9 G/DL; LEUKOCYTE COUNT [3]: 11.4 x10E3/uL; LYMPHOCYTE [3]: 76.5%; MEAN CORPUSCULAR HEMOGLOBIN [3]: 19.5 pg; MEAN CORPUSCULAR HEMOGLOBIN CONCENTRATION [3]: 31.2 G/DL; MEAN CORPUSCULAR VOLUME [3]: 62.43 fL; MONOCYTE [3]: 2.87%; NEUTROPHIL [3]: 16.73%; PLATELET COUNT [3]: 1489.33 x10E3/uL; ALANINE AMINOTRANSFERASE [3]: 36.67 u/L; ALBUMIN [3]: 3.67 G/DL; ALKALINE PHOSPHATASE [3]: 291 u/L; ASPARTATE AMINOTRANSFERASE [3]: 57 u/L; BLOOD UREA NITROGEN [3]: 11.67 mg/dL; CHLORIDE [3]: 102.67 MEQ/L; CHOLESTEROL [3]: 68.67 mg/dL; CREATINE PHOSPHOKINASE [3]: 130.67 u/L; CREATININE [3]: 0.5 mg/dL; GLUCOSE [3]: 173 mg/dL; PHOSPHORUS [3]: 11.97 mg/dL; POTASSIUM [3]: 6.37 MEQ/L; SODIUM [3]: 149.67 MEQ/L; TOTAL BILIRUBIN [3]: 0.27 mg/dL; TOTAL PROTEIN [3]: 6.6 G/DL; BASOPHIL [4]: 0.95%; EOSINOPHIL [4]: 2.55%; ERYTHROCYTE COUNT [4]: 7 x10E6/uL; HEMATOCRIT [4]: 43.15%; HEMOGLOBIN [4]: 13.8 G/DL; LEUKOCYTE COUNT [4]: 10.5 x10E3/uL; LYMPHOCYTE [4]: 75.25%; MEAN CORPUSCULAR HEMOGLOBIN [4]: 19.7 pg; MEAN CORPUSCULAR HEMOGLOBIN CONCENTRATION [4]: 32 G/DL; MEAN CORPUSCULAR VOLUME [4]: 61.5 fL; MONOCYTE [4]: 2.15%; NEUTROPHIL [4]: 18.45%; PLATELET COUNT [4]: 1383 x10E3/uL; ALANINE AMINOTRANSFERASE [4]: 34.67 u/L; ALBUMIN [4]: 3.57 G/DL; ALKALINE PHOSPHATASE [4]: 351 u/L; ASPARTATE AMINOTRANSFERASE [4]: 62.67 u/L; BLOOD UREA NITROGEN [4]: 11.67 mg/dL; CHLORIDE [4]: 102.67 MEQ/L; CHOLESTEROL [4]: 62.67 mg/dL; CREATINE PHOSPHOKINASE [4]: 168.67 u/L; CREATININE [4]: 0.6 mg/dL; GLUCOSE [4]: 170.33 mg/dL; PHOSPHORUS [4]: 13 mg/dL; POTASSIUM [4]: 7.1 MEQ/L; SODIUM [4]: 147 MEQ/L; TOTAL BILIRUBIN [4]: 0.4 mg/dL; TOTAL PROTEIN [4]: 6.37 G/DL
